The source of these data is the supplement of paper PMC11061612.

Holding throughout (assay): Bliss excess, mean over the matrix (fraction); higher = more synergy
In assay [1] the test system is SISO (Cervical Carcinoma). The procedure, abridged: (§1)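 Cell lines grown in DMEM/F12 or RPMI with 10% FBS were plated in 1536-well plates and held 24 hours at 37°C, 5% CO2 before 72 hours of exposure to two-drug dose matrices, with DMSO typically at 0.2%. CellTiter-Glo 2.0 luminescence gave viability, which was converted to inhibition. Vehicle wells were set to 0 and blank wells to 1. Combination Emax is the second-highest inhibition in the matrix, and Bliss excess is the observed combination effect minus the expected EA + EB − EA·EB, where EA and EB are the single-agent effects.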

The subject of assay [2] is SK-MES-1 (Squamous Cell Lung Carcinoma). The procedure, abridged: as §1
Assay [3] has as its system BICR22 (Oral Cavity Carcinoma). Summed up:
as §1

A further assay concerns IGR-37 (Melanoma). The procedure, abridged:
as §1

A further assay has as its system FU97 (Gastric Carcinoma). The procedure, abridged:
as §1

The test system of assay [4] is JSC-1 (B-Cell Non-Hodgkin's Lymphoma). The procedure, abridged:
as §1

Assay [5] concerns SK-MG-1 (Low Grade Glioma). The procedure, abridged: as §1
The test system of assay [6] is NCI-H2141 (Small Cell Lung Carcinoma). The procedure, abridged:
as §1

For the next assay, the system named is A498 (Kidney Carcinoma). The procedure, abridged: as §1
The test system of another assay is 8-MG-BA (Glioblastoma). Summed up: as §1
The test system of the next assay is U-2-OS (Osteosarcoma). The procedure, abridged:
as §1

The subject of assay [7] is KARPAS-422 (B-Cell Non-Hodgkin's Lymphoma). Summed up: as §1
The next assay relates to NCI-H2591 (Mesothelioma). The procedure, abridged: as §1
The test system of assay [8] is CAL-29 (Bladder Carcinoma). Summed up:
as §1

The subject of another assay is ARH-77 (Non-Cancerous). The procedure, abridged:
as §1

Assay [9] deals with NCI-H1650 (Lung Adenocarcinoma). Summed up:
as §1

For assay [10], the system named is HCC1954 (Breast Carcinoma). Summed up:
as §1

In assay [11] the test system is ONS-76 (Other Solid Carcinomas). Summed up:
as §1

A further assay deals with LN-405 (Glioblastoma). The procedure, abridged:
as §1

Assay [12] has as its system OS-RC-2 (Kidney Carcinoma). Summed up:
as §1

Take `CCN(CCO)CCCOc1ccc2c(Nc3cc(CC(=O)Nc4cccc(F)c4)[nH]n3)ncnc2c1` [AZD2811] + C=CCn1c(=O)c2cnc(Nc3ccc(N4CCN(C)CC4)cc3)nc2n1-c1cccc(C(C)(C)O)n1 [AZD1775] (first compound max 1 µM, partner max 1 µM): the Bliss excess is 0.0157 in [1]; -0.0112 in assay [2]; -0.0093 in assay [3]; -0.023 in the assay with IGR-37 (Melanoma); -0.0289 with FU97 (Gastric Carcinoma); -0.0038 in assay [4]. Besides, the Bliss excess in assay [5] was -0.0121; in [6], -0.0082; with A498 (Kidney Carcinoma), -0.0494; with 8-MG-BA (Glioblastoma) it was 0.0299; with U-2-OS (Osteosarcoma) it was -0.0039; in assay [7] it was -0.0349. Further, the Bliss excess was 0.0107 with NCI-H2591 (Mesothelioma); 0.0208 in assay [8]; 0.024 in the assay with ARH-77 (Non-Cancerous); -0.0277 in [9]; -0.0269 in assay [10]; 0.018 in assay [11]. In addition, the Bliss excess was -0.0312 in the assay with LN-405 (Glioblastoma) and -0.0231 in assay [12].
Take `CCN(CCO)CCCOc1ccc2c(Nc3cc(CC(=O)Nc4cccc(F)c4)[nH]n3)ncnc2c1` [AZD2811] + C[C@@H]1COCCN1C2=NC(=NC(=C2)C3(CC3)[S@](=N)(=O)C)C4=C5C=CNC5=NC=C4 [AZD6738] (first compound max 1 µM, 7x7, partner max 10 µM): the Bliss excess in [1] was 0.0006; in assay [2] it was -0.0484; in [3], -0.059; in the assay on IGR-37 (Melanoma), -0.0366; with FU97 (Gastric Carcinoma), -0.0795; in assay [4], -0.0495. For the same compound, the Bliss excess is -0.0271 in [5]; -0.0873 in assay [6]; -0.0832 in the assay on A498 (Kidney Carcinoma); -0.0212 in the assay on 8-MG-BA (Glioblastoma); -0.0297 in the assay with U-2-OS (Osteosarcoma); -0.0581 in assay [7]. Besides, the Bliss excess was -0.0338 in the assay on NCI-H2591 (Mesothelioma); -0.0023 in assay [8]; 0.0254 with ARH-77 (Non-Cancerous); -0.0801 in assay [9]; -0.0263 in [10]; -0.0864 in assay [11]. In addition, the Bliss excess in the assay with LN-405 (Glioblastoma) is -0.0386; in assay [12], -0.0449.
Turning to `CCN(CCO)CCCOc1ccc2c(Nc3cc(CC(=O)Nc4cccc(F)c4)[nH]n3)ncnc2c1` [AZD2811] + O=C(c1cc(Cc2n[nH]c(=O)c3ccccc23)ccc1F)N1CCN(C(=O)C2CC2)CC1 [Olaparib] (first compound max 1 µM, 7x7, partner max 10 µM), the Bliss excess in assay [1] is 0.0951; in assay [2] it was -0.0127; in [3], -0.0861; in the assay with IGR-37 (Melanoma), -0.0353; in the assay with FU97 (Gastric Carcinoma), -0.0269; in assay [4], 0.0145. In addition, the Bliss excess is 0.0331 in assay [5]; -0.0557 in assay [6]; -0.0656 in the assay on A498 (Kidney Carcinoma); 0.0327 in the assay with 8-MG-BA (Glioblastoma); 0.0112 in the assay on U-2-OS (Osteosarcoma); 0.0267 in assay [7]. In addition, the Bliss excess is -0.0332 with NCI-H2591 (Mesothelioma); 0.0378 in assay [8]; 0.0114 in the assay on ARH-77 (Non-Cancerous); -0.025 in assay [9]; -0.0023 in [10]; -0.0103 in assay [11]. Further, the results for the Bliss excess (in the assay with LN-405 (Glioblastoma); in assay [12]) were -0.0224 and -0.0261, respectively.
On to `CN(CCO)CC[C@H](CSc1ccccc1)Nc1ccc(S(=O)(=O)NC(=O)c2ccc(N3CCC([C@@H](O)c4ccccc4-c4ccc(Cl)cc4)CC3)cc2)cc1S(=O)(=O)C(F)(F)F` [AZD4320] + C1CN(CCC1(C(=O)N[C@@H](CCO)C2=CC=C(C=C2)Cl)N)C3=NC=NC4=C3C=CN4 [Capivasertib] (first compound max 1 µM, 7x7, partner max 3 µM), for which the Bliss excess in assay [1] is -0.0332; in [2], -0.0608; in assay [3] it was 0.0051; with IGR-37 (Melanoma) it was -0.0389; with FU97 (Gastric Carcinoma) it was 0.0069; in [4], -0.0187. In addition, the Bliss excess in [5] is -0.048; in [6], -0.027; in the assay with A498 (Kidney Carcinoma) it was -0.0049; with 8-MG-BA (Glioblastoma), -0.0071; in the assay with U-2-OS (Osteosarcoma), -0.0609; in assay [7], 0.0401. In addition, the Bliss excess in the assay on NCI-H2591 (Mesothelioma) is -0.0455; in assay [8] it was -0.0397; in the assay on ARH-77 (Non-Cancerous), 0.0277; in assay [9], -0.0427; in assay [10] it was 0.0377; in assay [11] it was -0.0469. Moreover, the Bliss excess is -0.0454 with LN-405 (Glioblastoma) and -0.0547 in [12].
`CN(CCO)CC[C@H](CSc1ccccc1)Nc1ccc(S(=O)(=O)NC(=O)c2ccc(N3CCC([C@@H](O)c4ccccc4-c4ccc(Cl)cc4)CC3)cc2)cc1S(=O)(=O)C(F)(F)F` [AZD4320] + C=CCn1c(=O)c2cnc(Nc3ccc(N4CCN(C)CC4)cc3)nc2n1-c1cccc(C(C)(C)O)n1 [AZD1775] (first compound max 1 µM, partner max 1 µM): the Bliss excess in assay [1] is -0.0116; in assay [2], 0.0356; in assay [3] it was 0.0848; with IGR-37 (Melanoma), 0.0354; with FU97 (Gastric Carcinoma), -0.0315; in assay [4], -0.0077. Besides, the Bliss excess in assay [5] is 0.064; in assay [6] it was 0.0423; in the assay with A498 (Kidney Carcinoma) it was 0.0368; with 8-MG-BA (Glioblastoma), -0.0417; in the assay on U-2-OS (Osteosarcoma), -0.0059; in assay [7], 0.0569. In addition, the Bliss excess was -0.0701 in the assay with NCI-H2591 (Mesothelioma); 0.0124 in assay [8]; -0.0449 in the assay on ARH-77 (Non-Cancerous); -0.0096 in assay [9]; 0.0823 in assay [10]; -0.0196 in [11]. Also, the Bliss excess in the assay on LN-405 (Glioblastoma) was 0.0173; in assay [12], -0.0254.
